Laboratory results from paper PMC9569839, “Methionine 274 Is Not the Determining Factor for Selective Inhibition of Histone Deacetylase 8 (HDAC8) by L-Shaped Inhibitors” (International Journal of Molecular Sciences, 2022).
Changes are numbered by the printed parent chain. Like-named read-outs stand apart in the source and are kept apart here.

Experiments:
HDAC8wt = molecular target: T1, HDAC8wt (Homo sapiens, UniProt Q9BY41); experiment: Enzyme activity assay, IC50 determination with Boc-Lys(TFA)-AMC
T1 sequence (Q9BY41 1-377): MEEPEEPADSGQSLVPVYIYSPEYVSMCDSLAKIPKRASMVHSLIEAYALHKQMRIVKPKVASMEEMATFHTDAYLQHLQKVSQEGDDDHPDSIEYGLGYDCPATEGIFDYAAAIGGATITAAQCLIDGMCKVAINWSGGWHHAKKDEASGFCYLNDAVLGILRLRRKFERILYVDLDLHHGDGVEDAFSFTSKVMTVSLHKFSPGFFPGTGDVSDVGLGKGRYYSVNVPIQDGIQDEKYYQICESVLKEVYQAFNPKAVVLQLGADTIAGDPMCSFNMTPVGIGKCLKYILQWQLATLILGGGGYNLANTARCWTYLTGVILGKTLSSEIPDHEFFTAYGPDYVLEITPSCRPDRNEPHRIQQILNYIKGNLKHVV

HDAC2 = settings: cited from earlier work
HDAC1 = settings: cited from earlier work
HDAC8M274A = molecular target: T2, HDAC8M274A (Homo sapiens, UniProt Q9BY41, M274A); experiment: Enzyme activity assay, IC50 determination with Boc-Lys(TFA)-AMC
T2 sequence (Q9BY41 1-377 M274A): T1 sequence (Q9BY41 1-377) with M274A

HDAC4 = settings: cited from earlier work
HDAC3 = settings: read-out: IC50 (HDAC3), cited from earlier work
HDAC6 = settings: cited from earlier work
HDAC8 = settings: cited from earlier work
HDAC10 = settings: cited from earlier work
HDAC11 = system: HDAC11; design: method as in Huang et al. [14]; settings: ref Huang et al. [14]; cited from earlier work
[1] = system: several cancer cell lines; design: method as in PMID 22907916; settings: ref [14]; cited from earlier work
[2] = ref Balasubramanian et al. [12]
[3] = TSA value of Figure 1, source not given

Question: What does the source list for `O=C(NO)c1cccc(-c2cn(CSc3ccccc3)nn2)c1` [NCC-149]?
Answer: IC50 (HDAC8wt): 0.04 µM; IC50 (HDAC2; ref Suzuki et al. [13]): > 100 µM; IC50 (HDAC1; ref Suzuki et al. [13]): 38 µM; IC50 (HDAC8M274A): 0.3 µM; IC50 (HDAC4; ref Suzuki et al. [13]): 44 µM; IC50 (HDAC3; ref Suzuki et al. [13]): > 68 µM; IC50 (HDAC6; ref Suzuki et al. [13]): 2.4 µM

Question: With `COc1ccc(Cn2ccc3ccc(C(=O)NO)cc32)cc1` [PCI-34051] as the compound, how does the IC50 (HDAC8; read-out: IC50-value (HDAC8), introduction text, ref [12],[13]) read?
Answer: […]

Question: What about the IC50 (HDAC10; [2]) of the same compound?
Answer: […]

Question: What about the IC50 (HDAC2; [2]) of the same compound?
Answer: […]

Question: For `O=C(CCCCCCC(=O)Nc1ccccc1)NO` [SAHA, suberoylanilide hydroxamic acid], which IC50 (HDAC6; [2]) is on record?
Answer: 0.017 µM

Question: Which IC50 (HDAC8; read-out: IC50 (HDAC8), TSA value of Figure 1, source not given) does the source give for `CC(/C=C/C(=O)NO)=C\[C@@H](C)C(=O)c1ccc(N(C)C)cc1` [TSA, trichostatin A] here?
Answer: 0.36 µM

Question: And the IC50 (HDAC4; [3])?
Answer: 3.3 µM

Question: What about the IC50 (HDAC6; [3]) of the same compound?
Answer: 0.017 µM

Question: With `COc1ccc(/C=C/C(=O)NO)c(-c2ccc(-c3ccccc3)cc2)c1` [o-ACHA] as the compound, how does the IC50 (HDAC10; ref Huang et al. [14]) read?
Answer: > 20 µM

Question: What about the IC50 (HDAC11) of the same compound?
Answer: > 20 µM

Question: And the IC50 (HDAC2; ref Huang et al. [14])?
Answer: > 20 µM

Question: And the IC50 (HDAC1; ref Huang et al. [14])?
Answer: 3 µM

Question: What about the antiproliferative effects [1] of the same compound?
Answer: antiproliferative effects against several cancer cell lines

Question: And the IC50 (HDAC4; ref Huang et al. [14])?
Answer: > 20 µM

Question: What about the IC50 (HDAC3; ref Huang et al. [14]) of the same compound?
Answer: 3 µM

Question: And the IC50 (HDAC6; ref Huang et al. [14])?
Answer: > 20 µM
